From patent US10196357B2, “Biaryl compositions and methods for modulating a kinase cascade” (Athenex, Inc., priority 2007, dated 2019)
Where “and” joins values, the source holds several entries; their conditions need not be identical. Equal values may be shown once. Read-outs that look alike come from different tables or passages of the source. Values belong to the molecule of their own block, whether it stands above or below them.

Columns and labels:
[1] = tested on: wild-type aywl strain of HBV; assay: HBV primary assay (HepG2-2.2.15 antiviral assay); format: cell-based; conditions: Test Concentration 1 μM
Experimental: The HBV primary assay developed was conducted similarly to that described by Korba et al., (Antiviral Res. 15: 217-228 (1991) and Antiviral Res. 19: 55-70 (1992)) with the exception that viral DNA detection and quantification have been improved and simplified (Korba et al., Antiviral Res. 19: 55-70 (1992)).
Compound 38 (KX2-377), Compound 136 (KX2-393), and Compound 137 (KX2-394) were evaluated for potential anti-HBV activity using a single high-test concentration of compounds in the standardized HepG2-2.2.15 antiviral assay. The HepG2-2.2.15 is a stable cell line producing high levels of the wild-type aywl strain of HBV. Briefly, HepG2-2.2.15 cells were plated in 96-well plates. Only the interior wells were utilized to reduce “edge effects” observed during cell culture; the exterior wells are filled with complete medium to help minimize sample evaporation. On the following day, the confluent monolayer of HepG2-2.2.15 cells was washed and the medium is replaced with complete medium containing test concentrations of a test article in triplicate. 3TC was used as the positive control, while media alone was added to cells as the untreated control. Three days later the culture medium was replaced with fresh medium containing the appropriately diluted drug. Six days following the initial administration of the test compound, the cell culture supernatant was collected, treated with pronase and DNAse and then used in a real-time quantitative TaqMan PCR assay for direct measurement of HBV DNA copies using an ABI Prism 7900 sequence detection system (Applied Biosystems, Foster City, Calif.).
The antiviral activity of each test compound was calculated by comparing its HBV DNA copies against that of the untreated control cells (100%) to derive percent inhibition level. After removing the supernatant, the remaining cells were subject to CellTiter 96 Aqueous One (Promega, Madison, Wis.) solution cell proliferation assay (MTS-based) to measure cell viability. Cytotoxicity of the compound was determined by comparing its cell viability with that of the untreated cell control to derive percentage of the cell control.

[2] = plasma pharmacokinetics after oral administration; format: in vivo, Male CD-1 mice
Experimental: (§1) [drawing 435] are described below. Plasma concentrations were measured in mice after oral and IV administration. Both oral and IV doses were formulated in saline. Male CD-1 mice were dosed after an overnight fast and fed 4 hours post-dose.
[…] The plasma concentration of 139 was measured at 0 min, 30 min, 1 h, 3 h, 6 h, 12 h, and 24 h time points. As discussed above for the i.v. administration, the analyte was extracted and analyzed by HPLC/mass spec.

[3] = plasma pharmacokinetics after IV administration; format: in vivo, Male CD-1 mice; conditions: single IV dose 5 mg/kg
Experimental: as §1
A single IV dose of 139 was administered to male CD-1 mice intravenously at 5 mg/kg (dose volume of 3 mL/kg). The plasma concentration of 139 was measured at 0 min, 5 min, 15 min, 30 min, 1 h, 3 h, 6 h, and 12 h time points. A liquid-liquid extraction procedure was used to isolate the analyte and internal standard from mice plasma. After the extract was dried and reconstituted, the sample was directly injected into a liquid chromatography/mass spectrometry (LC/MS) system. HPLC conditions were as follows: • HPLC System: Shimadzu SCL-10 System • Analytical Column: Aquasil C18 5 μm 50×2.1 mm column. • Column Temperature: Ambient temperature • Autosampler Temperature: Ambient temperature • Mobile Phase A) 10 mM Ammonium formate in water (pH4). • B) Acetonitrile. • Flow Rate: 0.6 mL/min • Injection Volume: 4 μL • Gradient:
• Mass spectrometry conditions were as follows: • Instrument: ABI Sciex API 4000 • Mode: ESI+ • Experiment: MRM (multiple reaction monitoring) • Transitions: 139: m/z 480.1→127.1 (Rt=3.8 minute)

[4] = tested on: lung cancer cell line A549; assay: tumor growth inhibition, A549; format: cell-based, Human; conditions: Homo sapiens, A549, A549 (Lung) cells
Description: (§2) Growth Inhibition. […] T1 values≤T0 values were designated as T, cytotoxicity.

c-Src 3T3 cells = assay: BrdU cell growth inhibition, c-Src 3T3; format: cell-based, mouse; conditions: Mus musculus
Experimental: (§3) The GI50s for several of the compounds of the invention were assayed as described herein.
The cells were routinely cultured in DMEM supplemented with Fetal Bovine Serum (2.0% v/V), L-glutamine (2 mM) and Sodium Pyruvate (1 mM).
(§4) In the BrdU Assay for cell growth inhibition, quantitation of cell proliferation was based on the measurement of BrdU incorporation during DNA synthesis. The Cell Proliferation ELISA BrdU assay kit (colorimetric) was obtained from Roche Applied Science and performed as per vendor instructions.
(§5) The growth inhibition (GI) is determined from the formula GI=(T0−Tn×100/T0−CONn) where T0 is the BrdU growth of untreated cells at time “0”, Tn is the BrdU growth of treated cells at day “n” and CONn is the control BrdU growth of control cells at day “n”. The GI50 was extrapolated and the data plotted using XL-Fit 4.0 software.
(§6) For 96 well culture plate experiments, c-Src 3T3 medium was supplemented with 10 mM HEPES buffer. HT-29 cells were seeded in standard tissue culture 96-well plates and c-Src 3T3 cells were seeded in 96-well plates coated with Poly-D-lysine (BIOCOAT™). To increase CO2 diffusion, c-Src 3T3 96-well plates were incubated with their lids raised by ˜2 mm using sterile rubber caps.
(§7) Samples were reconstituted in DMSO at 20 mM and intermediate dilutions made using DMEM containing 10% FBS. […] Plates were assayed for BrdU and the data analyzed as above for GI50.
(§8) All compounds were initially prepared as 20 mM DMSO stock solutions and then diluted into buffer for the in vitro tumor growth assays. NG means no cell growth beyond the control and T means the number of cells in the drug treated wells was less than in the control (i.e. net cell loss).

HT29 cell line = assay: BrdU cell growth inhibition, HT29; format: cell-based, human; conditions: Homo sapiens
Experimental: as §3
The HT29 cell line is a NCI standard human colon carcinoma cell line.
as §4, §5, §6, §7, §8, §2

[5] = male, CD-1, mouse, single oral dose 25 mg/kg

Structure (SMILES): Nc1ccn([C@@H]2CS[C@H](CO)O2)c(=O)n1 [Compound 3TC, 3TC, reference compound]
Antiviral Activity Percent inhibition of cell control [1]: 92.0%
Interpretation [1]: Active

Structure (SMILES): C#Cc1cccc(Nc2ncnc3cc(OCCOC)c(OCCOC)cc23)c1 [Tarceva, erlotinib, reference compound]
GI50 [4]: 1.74 µM

Structure (SMILES): O=C(Cc1ccc(-c2ccc(OCCCN3CCCCC3)cc2)cn1)NCc1cccc(F)c1 [KX2-374]
activity at 0.1 µM (c-Src 3T3 cells; NIH3T3, 100 nM, read-out: c-Src 3T3 Growth, % of Control Mean, n = 3): 110%
activity at 1 µM (c-Src 3T3 cells; NIH3T3, 1.0 uM, read-out: c-Src 3T3 Growth, % of Control Mean, n = 3): 84%
activity at 10 µM (c-Src 3T3 cells; NIH3T3, 10 uM, read-out: c-Src 3T3 Growth, % of Control Mean, n = 3): < 0%
activity at 0.05 µM (HT29 cell line; HT-29, 50 nM, read-out: HT-29 Growth, % of Control Mean, n = 3): 74%
activity at 0.5 µM (HT29 cell line; HT-29, 500 nM, read-out: HT-29 Growth, % of Control Mean, n = 3): 57%
activity at 5 µM (HT29 cell line; HT-29, 5 uM, read-out: HT-29 Growth, % of Control Mean, n = 3): < 0%

More lines, main results first:

bioavailability ([2]; male, CD-1, mouse, (Mean AUC0-∞ oral/oral dose)/(Mean AUC0-∞ IV/IV dose)×100%, 25 mg/kg oral, 5 mg/kg IV, read-out: Estimated bioavailability): 34.4%
concentration at 30 min ([2]; male, CD-1, mouse, po, 25 mg/kg, single PO dose 25 mg/kg, 30 min, read-out: Plasma Concentrations, Mean): 0.318 µg/mL
concentration at 1 h ([2]; male, CD-1, mouse, po, 25 mg/kg, single PO dose 25 mg/kg, 1 hr, read-out: Plasma Concentrations, Mean): 0.142 µg/mL
concentration at 3 h ([2]; male, CD-1, mouse, po, 25 mg/kg, single PO dose 25 mg/kg, 3 hr, read-out: Plasma Concentrations, Mean): 0.33 µg/mL
concentration at 6 h ([2]; male, CD-1, mouse, po, 25 mg/kg, single PO dose 25 mg/kg, 6 hr, read-out: Plasma Concentrations, Mean): 0.119 µg/mL
concentration at 12 h ([2]; male, CD-1, mouse, po, 25 mg/kg, single PO dose 25 mg/kg, 12 hr, read-out: Plasma Concentrations, Mean): 0.0566 µg/mL
concentration at 24 h ([2]; male, CD-1, mouse, po, 25 mg/kg, single PO dose 25 mg/kg, BLQ = 0, read-out: Plasma Concentrations, Mean): 0.0156 µg/mL
concentration at 24 h ([2]; male, CD-1, mouse, po, 25 mg/kg, single PO dose 25 mg/kg, read-out: Plasma Concentrations, Group A, B, C): 0.0312 µg/mL
AUC(0-inf) [2, 5]: 2.44 µg·h/mL
AUC(0-t) [2, 5]: 2.3 µg·h/mL
Cmax [2, 5]: 0.33 µg/mL
MRT [2, 5]: 7.7 h
Tmax [2, 5]: 3 h
half-life ([2]; male, CD-1, mouse, single oral dose 25 mg/kg, estimated from 6, 12, 24 hours): 6.2 h
% AUC Extrap ([2]; single oral dose 25 mg/kg): 5.7%
AUC0-∞/Dose ([2]; single oral dose 25 mg/kg): 97.6 kg·ng·h/mL/mg
concentration at 5 min ([3]; male, CD-1, mouse, plasma, iv, 5 mg/kg, 5 min, read-out: Plasma Concentrations, Group A, B, C): 1.2 µg/mL
concentration at 5 min ([3]; male, CD-1, mouse, plasma, iv, 5 mg/kg, 5 min, read-out: Plasma Concentrations, Mean): 1.25 µg/mL
concentration at 15 min ([3]; male, CD-1, mouse, plasma, iv, 5 mg/kg, 15 min, read-out: Plasma Concentrations, Group A, B, C): 0.273 µg/mL
concentration at 15 min ([3]; male, CD-1, mouse, plasma, iv, 5 mg/kg, 15 min, read-out: Plasma Concentrations, Mean): 0.329 µg/mL
concentration at 30 min ([3]; male, CD-1, mouse, plasma, iv, 5 mg/kg, 30 min, read-out: Plasma Concentrations, Group A, B, C): 0.5 µg/mL
concentration at 30 min ([3]; male, CD-1, mouse, plasma, iv, 5 mg/kg, 30 min, read-out: Plasma Concentrations, Mean): 0.382 µg/mL
concentration at 1 h ([3]; male, CD-1, mouse, plasma, iv, 5 mg/kg, 1 hr, read-out: Plasma Concentrations, Group A, B, C): 0.186 µg/mL
concentration at 1 h ([3]; male, CD-1, mouse, plasma, iv, 5 mg/kg, 1 hr, read-out: Plasma Concentrations, Mean): 0.178 µg/mL
concentration at 3 h ([3]; male, CD-1, mouse, plasma, iv, 5 mg/kg, 3 hr, read-out: Plasma Concentrations, Mean): 0.207 µg/mL
concentration at 6 h ([3]; male, CD-1, mouse, plasma, iv, 5 mg/kg, 6 hr, read-out: Plasma Concentrations, Mean): 0.0432 µg/mL
concentration at 12 h ([3]; male, CD-1, mouse, plasma, iv, 5 mg/kg, BLQ = 0, read-out: Plasma Concentrations, Mean): 0.00367 µg/mL
concentration at 12 h ([3]; male, CD-1, mouse, plasma, iv, 5 mg/kg, read-out: Plasma Concentrations, Group A, B, C): 0.011 µg/mL
AUC(0-inf) ([3]; male, CD-1, mouse, plasma): 1.42 µg·h/mL
AUC(0-t) ([3]; male, CD-1, mouse, plasma): 1.41 µg·h/mL
C0 ([3]; male, CD-1, mouse, plasma): 2.42 µg/mL
MRT ([3]; male, CD-1, mouse, plasma): 2.3 h
clearance ([3]; male, CD-1, mouse, plasma): 3.52 L/h/kg
half-life ([3]; male, CD-1, mouse, plasma, estimated from 3, 6, 12 hours): 1.6 h
Vd ([3]; male, CD-1, mouse, plasma, read-out: Vss): 8.15 L/kg
% AUC Extrap ([3]; plasma): 0.6%
AUC0-∞/Dose ([3]; plasma): 284.1 kg·ng·h/mL/mg
Plasma Concentrations, Group A, B, C ([3]; 5 min, 5 mg/kg): 1.287 µg/mL and 1.26 µg/mL
Plasma Concentrations, Group A, B, C ([3]; 15 min, 5 mg/kg): 0.306 µg/mL and 0.407 µg/mL
Plasma Concentrations, Group A, B, C ([3]; 30 min, 5 mg/kg): 0.367 µg/mL and 0.279 µg/mL
Plasma Concentrations, Group A, B, C ([3]; 1 hr, 5 mg/kg): 0.21 µg/mL and 0.137 µg/mL
Structure (SMILES): CN1CCN(CCOc2ccc(-c3ccc(CC(=O)NCc4cccc(F)c4)cc3)c(F)c2)CC1 [Compound 139, 2-(2′-fluoro-4′-(2-(4-methylpiperazin-1-yl)ethoxy)biphenyl-4-yl)-N-(3-fluorobenzyl)acetamide]

GI50 (HT29 cell line; HT-29, HT29 (Colon) cells, read-out: GI50): 0.248 µM
Structure (SMILES): O=C(Cc1ccc(-c2ccc(OCCCN3CCOCC3)cc2)cn1)NCc1cccc(F)c1 [KX2-383]
GI50 (c-Src 3T3 cells; c-Src 3T3 (c-Src527F/NIH3T3) cells, read-out: GI50): 0.327 µM
